The record followed here is patent US20190367520A1, “NEW COMPOUND HAVING FGFR INHIBITORY ACTIVITY AND PREPARATION AND APPLICATION THEREOF” (SHANGHAI INSTITUTE OF MATERIA MEDICA, CHINESE ACADEMY OF …, priority 2016, published 2019).

Each structure is given as a SMILES string. pIC50: −log10 of the molar value.

In assay [1] the target is FGFR1 kinase domain recombinant protein (Homo sapiens, UniProt P11362). Description: FGFR1 enzyme activity at molecular level (ELISA, Poly(Glu,Tyr) 4:1 substrate). In general terms: ELISA stands for enzyme-linked immunosorbent assay.
FGFR1 kinase domain recombinant protein, sequence (P11362 478-767 limits assumed): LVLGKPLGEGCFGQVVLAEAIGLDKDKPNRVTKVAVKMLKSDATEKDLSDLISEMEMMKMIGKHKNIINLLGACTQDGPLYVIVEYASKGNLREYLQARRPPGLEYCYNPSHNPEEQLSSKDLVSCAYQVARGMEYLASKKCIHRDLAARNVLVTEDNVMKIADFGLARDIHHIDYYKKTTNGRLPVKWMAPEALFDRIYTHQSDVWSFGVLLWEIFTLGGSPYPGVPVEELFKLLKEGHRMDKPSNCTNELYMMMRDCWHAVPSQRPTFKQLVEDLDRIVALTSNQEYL
Procedure: (§1) The plate was placed at 37° C. for 12-16 hours. The liquid in the well was discarded, the plate was washed, and the panel was washed three times with 200 μL/well of T-PBS (PBS containing 0.1% Tween-20) for 5 minutes each time.
(§2) 50 μL of ATP solution diluted with reaction buffer (50 mM HEPES pH 7.4, 50 mM MgCl2, 0.5 mM MnCl2, 0.2 mM Na3VO4, 1 mM DTT) was added to each well to a final concentration of 5 μM. The compound was diluted to a suitable concentration in DMSO, 1 μL/well or containing the corresponding concentration of DMSO (negative control well), and the FGFR1, FGFR4 kinase domain recombinant protein diluted in 49 μL of reaction buffer was added to initiate the reaction. Two control wells without ATP were required for each experiment. The reaction was carried out for 1 hour at 37° C. on a shaker (100 rpm). The plate was washed three times with T-PBS. Primary antibody, PY99 dilution was added at 100 μL/well and shaken at 37° C. for 0.5 hour. The plate was washed three times with T-PBS. Secondary antibody, horseradish peroxidase-labeled goat anti-mouse IgG dilution was added at 100 μL/well, and shaken at 37° C. for 0.5 hour. […] (Ultrasound was required for the dissolution of OPD, and the chromogenic solution needed to be prepared when used). 2 M H2SO4 was added at 50 μL/well to quench the reaction and a tunable wavelength microplate reader SPECTRA MAX 190 was used at a wavelength of 490 nm.
(§3) The inhibition rate of the sample was obtained by the following formula:
(§4) The IC50 value was obtained by four-parameter regression using the software attached to the microplate reader.
Assay [2] deals with FGFR4 kinase domain recombinant protein (Homo sapiens, UniProt P22455). As to the kind of experiment: FGFR4 enzyme activity at molecular level (ELISA, Poly(Glu,Tyr) 4:1 substrate).
FGFR4 kinase domain recombinant protein, sequence (P22455 467-755 limits assumed): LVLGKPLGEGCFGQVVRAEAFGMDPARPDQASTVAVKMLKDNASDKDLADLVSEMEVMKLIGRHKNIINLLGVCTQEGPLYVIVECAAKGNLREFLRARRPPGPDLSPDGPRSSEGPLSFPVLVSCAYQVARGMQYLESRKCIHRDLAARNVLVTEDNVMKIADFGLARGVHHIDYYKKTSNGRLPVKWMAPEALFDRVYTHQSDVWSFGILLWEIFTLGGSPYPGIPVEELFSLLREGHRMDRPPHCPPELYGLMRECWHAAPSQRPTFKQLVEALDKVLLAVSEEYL
Procedure: as §1, §2, §3, §4

Usually pIC50 stands for −log10 of the IC50, conventionally taken in molar units. Take `C=C(CN1CCN(C)CC1)C(=O)N1CC[C@H](n2cc(-c3cc4cc(C)cc(OC)c4s3)c3c(N)ncnc32)C1` [NO. 49, (S) 1-(3-(4-amino-5-(7-methoxy-5-methylbenzothiophene-2-yl)-7H-pyrrole[2,3-d]pyrimidine-7-yl)pyrrolidine-1-yl)-2-((4-methylpiperazin-1-yl)-methylene)prop-2-en-1-one]: the pIC50 is 7.00 to 8.00 in assay [1] and > 8.00 in assay [2].

For `C=CC(=O)N1CCC(n2cc(-c3ccc4c(N)n[nH]c4c3)c3c(N)ncnc32)C1` (centres unmarked) [NO. 80, 1-(3-(4-amino-5-(3-amino-1H-indazol-6-yl)-7H-pyrrole[2,3-d]pyrimidine-7-yl)pyrrolidine-1-yl)prop-2-en-1-one], the pIC50 in assay [1] and in assay [2] was < 7.00 throughout.

With `C=CC(=O)N1CCC(n2cc(-c3cc4cc(C)cc(OC)c4s3)c3c(N)nc(OCCN4CCOCC4)nc32)C1` (centres unmarked) [NO. 66, 1-(3-(4-amino-5-(7-methoxy-5-methylbenzothiophene-2-yl)-2-(2-morpholineethoxy)-7H-pyrrole [2,3-d]pyrimidine-7-yl)pyrrolidine-1-yl)prop-2-en-1-one], the pIC50 in assay [1] was < 7.00.

Take `C=CC(=O)N1CC[C@H](n2cc(-c3cc4cc(Br)cc(OC)c4s3)c3c(N)ncnc32)C1` [NO. 62, (S)-1-(3-(4-amino-5-(5-bromo-7-methoxybenzothiophene-2-yl)-7H-pyrrole[2,3-d]pyrimidine-7-yl)pyrrolidine-1-yl)prop-2-en-1-one]: the pIC50 in assay [1] was > 8.00.

For the compound `C=CC(=O)N1CCC(Cn2cc(-c3cc4cc(C)cc(OC)c4s3)c3c(N)ncnc32)C1` (centres unmarked) [NO. 20, 1-(3-((4-amino-5-(7-methoxy-5-methylbenzothiophene-2-yl)-7H-pyrrole [2,3-d]pyrimidine-7-yl)methyl)pyrrolidine-1-yl)prop-2-en-1-one], the pIC50 in assay [1] and in assay [2] was 7.00 to 8.00 in each case.

Consider `C=C(CN1CCN(C)CC1)C(=O)N1CC(n2cc(-c3cc4cc(C)cc(OC)c4s3)c3c(N)ncnc32)C1` [NO. 52, 1-(3-(4-amino-5-(7-methoxy-5-methylbenzothiophene-2-yl)-7H-pyrrole[2,3-d]pyrimidine-7-yl)azetidine-1-yl)-2-((4-methylpiperazin-1-yl)methylene)prop-2-en-1-one], for which the pIC50 in assay [1] and in assay [2] was > 8.00 each time.

`C=C(CN1CCOCC1)C(=O)N1CC[C@H](n2nc(-c3cc4cc(C)cc(OC)c4s3)c3c(N)ncnc32)C1` [NO. 54, (S) 1-(3-(4-amino-3-(7-methoxy-5-methylbenzothiophene-2-yl)-1H-pyrazole[3,4-d]pyrimidine-1-yl)pyrrolidine-1-yl)-2-(morpholinemethylene)prop-2-en-1-one]: the pIC50 was > 8.00 in assay [1] and 7.00 to 8.00 in assay [2].

For `C=CC(=O)N1CC[C@@H](n2cc(-c3cc4cc(C)cc(OC)c4s3)c3c(N)ncnc32)C1` [NO. 11, (R)-1-(3-(4-amino-5-(7-methoxy-5-methylbenzothiophene-2-yl)-7H-pyrrole[2,3-d]pyrimidine-7-yl)pyrrolidine-1-yl)prop-2-en-1-one], the negative logarithm of the IC50 (pIC50) was > 8.00 in assay [1] and 7.00 to 8.00 in assay [2].

As to `C=CC(=O)N1CCC(n2cc(-c3cc4cc(C(F)(F)F)cc(OC)c4s3)c3c(N)ncnc32)C1` (centres unmarked) [NO. 58, 1-(3-(4-amino-5-(7-methoxy-5-(trifluoromethyl)benzothiophene-2-yl)-7H-pyrrole[2,3-d]pyrimidine-7-yl)pyrrolidine-1-yl)prop-2-en-1-one], the pIC50 in assay [1] and in assay [2] was > 8.00 in each case.

As for `COc1cc(C)cc2cc(-c3cn(C4CCN(C(=O)/C=C/CN5CCC(F)C5)C4)c4ncnc(N)c34)sc12` (centres unmarked) [NO. 69, (E)-1-(3-(4-amino-5-(7-methoxy-5-methylbenzothiophene-2-yl)-7H-pyrrole[2,3-d]pyrimidine-7-yl)pyrrolidine-1-yl)-4-(3-fluoropyrrolidin-1-yl)but-2-en-1-one], the pIC50 was > 8.00 in assay [1] and 7.00 to 8.00 in assay [2].

With `C=CC(=O)N1CC(n2cc(-c3cc4cc(C)cc(OC)c4o3)c3c(N)ncnc32)C1` [NO. 23, 1-(3-(4-amino-5-(7-methoxy-5-methylbenzofuran-2-yl)-7H-pyrrole[2,3-d]pyrimidine-7-yl)azetidine-1-yl)prop-2-en-1-one], the pIC50 in assay [2] is < 7.00.

As for `C=C(CN(C)C)C(=O)N1CC(n2cc(-c3cc4cc(C)cc(OC)c4s3)c3c(N)ncnc32)C1` [NO. 53, 1-(3-(4-amino-5-(7-methoxy-5-methylbenzothiophene-2-yl)-7H-pyrrole[2,3-d]pyrimidine-7-yl)azetidine-1-yl)-2-((dimethylamino)methylene)prop-2-en-1-one], the pIC50 in assay [1] and in assay [2] was > 8.00 throughout.

For the compound `C=C(CN1CCCCC1)C(=O)N1CC[C@H](n2cc(-c3cc4cc(C)cc(OC)c4s3)c3c(N)ncnc32)C1` [NO. 48, (S) 1-(3-(4-amino-5-(7-methoxy-5-methylbenzothiophene-2-yl)-7H-pyrrole[2,3-d]pyrimidine-7-yl)pyrrolidine-1-yl)-2-(piperidine-1-methylene)prop-2-en-1-one], the pIC50 in assay [1] was 7.00 to 8.00; in assay [2], > 8.00.

Consider `C=CC(=O)N1CCC(n2cc(-c3cc4cc(C(=O)O)cc(OC)c4s3)c3c(N)ncnc32)C1` (centres unmarked) [NO. 85, 2-(7-(1-acryloylpyrrolidine-3-yl)-4-amino-7H-pyrrole[2,3-d]pyrimidine-5-yl)-7-methoxybenzothiophene-5-formic acid], for which the pIC50 in assay [1] and in assay [2] was < 7.00 throughout.

Regarding `C/C=C/C(=O)N1CCC(n2cc(-c3cc4cc(C)cc(OC)c4s3)c3c(N)ncnc32)C1` (centres unmarked) [NO. 18, (E)-1-(3-(4-amino-5-(7-methoxy-5-methylbenzothiophene-2-yl)-7H-pyrrole[2,3-d]pyrimidine-7-yl)pyrrolidine-1-yl)but-2-en-1-one], the pIC50 is > 8.00 in assay [1] and 7.00 to 8.00 in assay [2].

In the case of `C=CC(=O)N1C[C@@H](n2nc(-c3cc4cc(C)cc(OC)c4s3)c3c(N)ncnc32)C[C@H]1C(=O)N(C)CCN(C)C` [NO. 75], in assay [1], the pIC50 is > 8.00.

Regarding `C=CC(=O)N1CC[C@H](n2cc(-c3cnc4ccccc4c3)c3c(N)ncnc32)C1` [Control compound, (S)-1-(3-(4-amino-5-(quinolin-3-yl)-7H-pyrrole[2,3-d]pyrimidine-7-yl)pyrrolidine-1-yl)prop-2-en-1-one, reference compound], the figures for the negative-log IC50 (pIC50) in assay [1] and in assay [2] were < 7.00 and 7.00 to 8.00, respectively. Besides, the “FGFR inhibitory activity (in words)” value in assay [1] (FGFR1 and FGFR4 enzymes, conclusion from Table 2) was “substantially no FGFR inhibitory activity”.

Take `COc1cc(C)cc2cc(-c3cn(C4CCN(C(=O)/C=C/CN5CCCCC5)C4)c4ncnc(N)c34)sc12` (centres unmarked) [NO. 8, (E) 1-(3-(4-amino-5-(7-methoxy-5-methylbenzothiophene-2-yl)-7H-pyrrole[2,3-d]pyrimidine-7-yl)pyrrolidine-1-yl)-4-(piperidine-1-yl)but-2-en-1-one]: the results for the pIC50 in assay [1] and in assay [2] were > 8.00 and 7.00 to 8.00, respectively.

For `CCN(C)C/C=C/C(=O)N1CCC(n2cc(-c3cc4cc(C)cc(OC)c4s3)c3c(N)ncnc32)C1` (centres unmarked) [NO. 5, (E) 1-(3-(4-amino-5-(7-methoxy-5-methylbenzothiophene-2-yl)-7H-pyrrole[2,3-d]pyrimidine-7-yl)pyrrolidine-1-yl)-4-(ethyl(methy)amino)but-2-en-1-one], the values for the pIC50 in assay [1] and in assay [2] were > 8.00 and 7.00 to 8.00, respectively.

`COCCN(C)C/C=C/C(=O)N1CCC(n2cc(-c3cc4cc(C)cc(OC)c4s3)c3c(N)ncnc32)C1` (centres unmarked) [NO. 81, (E)-1-(3-(4-amino-5-(7-methoxy-5-methylbenzothiophene-2-yl)-7H-pyrrole[2,3-d]pyrimidine-7-yl)pyrrolidine-1-yl)-4-((2-methoxyethyl) (methyl)amino)but-2-en-1-one]: the pIC50 in assay [1] was > 8.00; in assay [2] it was 7.00 to 8.00.

With `C=C(CN1CCCC1)C(=O)N1CC(n2cc(-c3cc4cc(C)cc(OC)c4s3)c3c(N)ncnc32)C1` [NO. 44, 1-(3-(4-amino-5-(7-methoxy-5-methylbenzothiophene-2-yl)-7H-pyrrole[2,3-d]pyrimidine-7-yl)azetidine-1-yl)-2-(pyrrolidine-1-methylene)prop-2-en-1-one], the pIC50 in assay [1] and in assay [2] was > 8.00 throughout.

Take `C=CC(=O)N1CC[C@H](n2nc(-c3cc4cc(C)cc(OC)c4s3)c3c(N)ncnc32)C1` [NO. 56, (S) 1-(3-(4-amino-3-(7-methoxy-5-methylbenzothiophene-2-yl)-1H-pyrazole[3,4-d]pyrimidine-1-yl)pyrrolidine-1-yl)prop-2-en-1-one]: the pIC50 in assay [1] and in assay [2] was > 8.00 throughout.

Regarding `C=CC(=O)N1CC[C@H](n2cc(-c3cc4cc(Cl)cc(OC)c4s3)c3c(N)ncnc32)C1` [NO. 59, (S)-1-(3-(4-amino-5-(5-chloro-7-methoxybenzothiophene-2-yl)-7H-pyrrole[2,3-d]pyrimidine-7-yl)pyrrolidine-1-yl)prop-2-en-1-one], the pIC50 in assay [1] was > 8.00.

In the case of `C=C(CN1CCOCC1)C(=O)N1CC(n2nc(-c3cc4cc(C)cc(OC)c4s3)c3c(N)ncnc32)C1` [NO. 55, 1-(3-(4-amino-3-(7-methoxy-5-methylbenzothiophene-2-yl)-1H-pyrazole[3,4-d]pyrimidin-yl)azetidine-1-yl)-2-(morpholinemethylene)prop-2-en-1-one], the pIC50 in assay [1] and in assay [2] was > 8.00 throughout.

On to `C=CC(=O)N1CCC(n2c(Cl)c(-c3cc4cc(C)cc(OC)c4s3)c3c(N)ncnc32)C1` (centres unmarked) [NO. 71], for which, in assay [1], the pIC50 was > 8.00.

`C=CC(=O)N1CC(n2cc(-c3cc4cc(C)cc(OC)c4s3)c3c(N)ncnc32)CC1CO` (centres unmarked) [NO. 70, 1-(4-(4-amino-5-(7-methoxy-5-methylbenzothiophene-2-yl)-7H-pyrrole[2,3-d]pyrimidine-7-yl)-2-(hydroxymethyl)pyrrolidine-1-yl)prop-2-en-1-one]: the pIC50 in assay [1] was > 8.00.

Take `C=CC(=O)N1CC[C@H](n2cc(-c3cc4cc(F)cc(OC)c4s3)c3c(N)ncnc32)C1` [NO. 60, (S)-1-(3-(4-amino-5-(5-fluoro-7-methoxybenzothiophene-2-yl)-7H-pyrrole[2,3-d]pyrimidine-7-yl)pyrrolidine-1-yl)prop-2-en-1-one]: the pIC50 in assay [1] was > 8.00.
